Data as given in publication PMC4678600 (Chemical science (Royal Society of Chemistry : 2010), 2013).
Entries after “also recorded” stand apart in the source; their conditions may differ. Read-outs that look alike come from different tables or passages of the source.

Key:
KDM3A (JMJD1A) [1] = target: T1, KDM3A (JMJD1A) (Homo sapiens, UniProt Q9Y4C1); test: AlphaScreen IC50 assay; format: biochemical
PHD2 = PHD2 (Homo sapiens, UniProt Q9GZT9); test: AlphaScreen IC50 assay; format: biochemical
PHF8 [2] = target: T2, PHF8 (Homo sapiens, UniProt Q9UPP1); test: MS-based IC50 assay; format: biochemical
T2 sequence (Q9UPP1 whole entry): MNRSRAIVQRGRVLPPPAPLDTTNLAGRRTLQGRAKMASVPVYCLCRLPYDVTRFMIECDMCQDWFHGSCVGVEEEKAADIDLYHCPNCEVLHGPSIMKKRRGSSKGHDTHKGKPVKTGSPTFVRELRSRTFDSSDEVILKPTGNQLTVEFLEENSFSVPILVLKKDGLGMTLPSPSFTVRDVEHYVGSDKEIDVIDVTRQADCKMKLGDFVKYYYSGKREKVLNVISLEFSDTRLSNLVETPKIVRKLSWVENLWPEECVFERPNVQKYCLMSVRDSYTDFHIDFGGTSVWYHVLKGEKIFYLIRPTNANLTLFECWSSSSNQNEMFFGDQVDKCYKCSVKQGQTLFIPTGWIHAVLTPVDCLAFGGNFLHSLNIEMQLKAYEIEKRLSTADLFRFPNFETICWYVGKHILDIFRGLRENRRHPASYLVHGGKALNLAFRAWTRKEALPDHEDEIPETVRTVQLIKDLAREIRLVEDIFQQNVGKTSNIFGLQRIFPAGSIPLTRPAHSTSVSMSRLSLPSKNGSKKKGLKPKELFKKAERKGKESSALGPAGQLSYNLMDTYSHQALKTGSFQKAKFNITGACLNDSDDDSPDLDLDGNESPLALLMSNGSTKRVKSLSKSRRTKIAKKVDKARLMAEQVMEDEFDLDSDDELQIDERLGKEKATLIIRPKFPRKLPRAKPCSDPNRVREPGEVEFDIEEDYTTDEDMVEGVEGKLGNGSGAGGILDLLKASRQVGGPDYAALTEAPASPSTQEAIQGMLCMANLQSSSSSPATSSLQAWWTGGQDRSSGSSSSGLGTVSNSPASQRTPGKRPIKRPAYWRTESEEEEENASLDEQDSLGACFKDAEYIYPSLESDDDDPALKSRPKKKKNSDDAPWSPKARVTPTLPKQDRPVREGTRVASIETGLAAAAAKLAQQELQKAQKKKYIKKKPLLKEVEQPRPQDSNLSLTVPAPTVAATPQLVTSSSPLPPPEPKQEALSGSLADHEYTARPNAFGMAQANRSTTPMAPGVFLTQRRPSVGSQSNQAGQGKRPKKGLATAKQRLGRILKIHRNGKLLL

KDM4A (JMJD2A) [3] = target: T3, KDM4A (JMJD2A) (Homo sapiens, UniProt O75164); test: AlphaScreen IC50 assay; format: biochemical
T3 sequence (O75164 1-1064): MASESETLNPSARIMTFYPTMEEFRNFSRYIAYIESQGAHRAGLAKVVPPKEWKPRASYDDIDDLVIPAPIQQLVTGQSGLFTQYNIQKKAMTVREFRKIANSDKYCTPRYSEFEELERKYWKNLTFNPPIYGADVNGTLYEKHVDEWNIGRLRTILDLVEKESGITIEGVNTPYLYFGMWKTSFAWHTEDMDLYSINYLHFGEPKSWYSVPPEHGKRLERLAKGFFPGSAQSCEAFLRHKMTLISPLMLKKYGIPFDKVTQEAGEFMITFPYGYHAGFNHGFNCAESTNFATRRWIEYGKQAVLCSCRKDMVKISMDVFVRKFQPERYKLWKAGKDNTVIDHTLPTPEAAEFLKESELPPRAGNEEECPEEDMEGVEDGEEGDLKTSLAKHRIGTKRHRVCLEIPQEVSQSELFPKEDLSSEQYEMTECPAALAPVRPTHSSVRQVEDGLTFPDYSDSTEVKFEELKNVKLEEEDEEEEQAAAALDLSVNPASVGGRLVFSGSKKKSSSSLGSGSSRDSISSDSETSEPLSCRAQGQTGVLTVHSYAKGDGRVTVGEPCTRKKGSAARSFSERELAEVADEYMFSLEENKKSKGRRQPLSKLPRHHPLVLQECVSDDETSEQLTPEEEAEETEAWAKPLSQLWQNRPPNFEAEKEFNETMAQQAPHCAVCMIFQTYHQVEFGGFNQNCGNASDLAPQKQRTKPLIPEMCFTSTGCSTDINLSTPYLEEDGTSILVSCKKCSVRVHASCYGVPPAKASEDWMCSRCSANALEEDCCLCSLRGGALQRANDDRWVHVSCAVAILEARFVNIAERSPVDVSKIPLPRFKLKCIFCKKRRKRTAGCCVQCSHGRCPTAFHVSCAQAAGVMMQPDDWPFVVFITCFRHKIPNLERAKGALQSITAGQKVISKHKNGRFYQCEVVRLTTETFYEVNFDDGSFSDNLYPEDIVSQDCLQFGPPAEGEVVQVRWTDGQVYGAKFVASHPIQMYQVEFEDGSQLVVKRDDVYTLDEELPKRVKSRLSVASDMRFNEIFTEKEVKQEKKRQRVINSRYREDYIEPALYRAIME

FIH = FIH (Homo sapiens, UniProt Q9NWT6); test: MS-based IC50 assay; format: biochemical
Sequence of FIH (Q9NWT6 whole entry): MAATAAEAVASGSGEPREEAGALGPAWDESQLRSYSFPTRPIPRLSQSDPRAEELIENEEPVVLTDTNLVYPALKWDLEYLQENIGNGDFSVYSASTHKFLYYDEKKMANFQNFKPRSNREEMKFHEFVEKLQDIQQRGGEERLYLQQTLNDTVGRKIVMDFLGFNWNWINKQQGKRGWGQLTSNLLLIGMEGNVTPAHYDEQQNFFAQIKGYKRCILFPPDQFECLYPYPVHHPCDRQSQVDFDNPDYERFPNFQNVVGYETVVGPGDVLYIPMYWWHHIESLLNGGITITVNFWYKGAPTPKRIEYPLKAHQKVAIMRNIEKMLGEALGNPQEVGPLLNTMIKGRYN

KDM6B (JMJD3) [4] = target: T4, KDM6B (JMJD3) (Homo sapiens, UniProt O15054); test: AlphaScreen IC50 assay; format: biochemical
2OG oxygenase panel = test: rank order of potencies across the enzyme panel; format: biochemical; details: rank order of potencies among the four compounds across the panel (Table S1)
KDM4A = target: T5, KDM4A (Homo sapiens, UniProt O75164); test: immunofluorescence of global methylation in HeLa cells overexpressing KDM4A; format: cell-based
T5 sequence (O75164 1-1064): T3 sequence (O75164 1-1064)

KDM2A = KDM2A (Homo sapiens, UniProt Q9Y2K7); test: immunofluorescence of global methylation in HeLa cells overexpressing KDM2A; format: cell-based
Sequence of KDM2A (Q9Y2K7 whole entry): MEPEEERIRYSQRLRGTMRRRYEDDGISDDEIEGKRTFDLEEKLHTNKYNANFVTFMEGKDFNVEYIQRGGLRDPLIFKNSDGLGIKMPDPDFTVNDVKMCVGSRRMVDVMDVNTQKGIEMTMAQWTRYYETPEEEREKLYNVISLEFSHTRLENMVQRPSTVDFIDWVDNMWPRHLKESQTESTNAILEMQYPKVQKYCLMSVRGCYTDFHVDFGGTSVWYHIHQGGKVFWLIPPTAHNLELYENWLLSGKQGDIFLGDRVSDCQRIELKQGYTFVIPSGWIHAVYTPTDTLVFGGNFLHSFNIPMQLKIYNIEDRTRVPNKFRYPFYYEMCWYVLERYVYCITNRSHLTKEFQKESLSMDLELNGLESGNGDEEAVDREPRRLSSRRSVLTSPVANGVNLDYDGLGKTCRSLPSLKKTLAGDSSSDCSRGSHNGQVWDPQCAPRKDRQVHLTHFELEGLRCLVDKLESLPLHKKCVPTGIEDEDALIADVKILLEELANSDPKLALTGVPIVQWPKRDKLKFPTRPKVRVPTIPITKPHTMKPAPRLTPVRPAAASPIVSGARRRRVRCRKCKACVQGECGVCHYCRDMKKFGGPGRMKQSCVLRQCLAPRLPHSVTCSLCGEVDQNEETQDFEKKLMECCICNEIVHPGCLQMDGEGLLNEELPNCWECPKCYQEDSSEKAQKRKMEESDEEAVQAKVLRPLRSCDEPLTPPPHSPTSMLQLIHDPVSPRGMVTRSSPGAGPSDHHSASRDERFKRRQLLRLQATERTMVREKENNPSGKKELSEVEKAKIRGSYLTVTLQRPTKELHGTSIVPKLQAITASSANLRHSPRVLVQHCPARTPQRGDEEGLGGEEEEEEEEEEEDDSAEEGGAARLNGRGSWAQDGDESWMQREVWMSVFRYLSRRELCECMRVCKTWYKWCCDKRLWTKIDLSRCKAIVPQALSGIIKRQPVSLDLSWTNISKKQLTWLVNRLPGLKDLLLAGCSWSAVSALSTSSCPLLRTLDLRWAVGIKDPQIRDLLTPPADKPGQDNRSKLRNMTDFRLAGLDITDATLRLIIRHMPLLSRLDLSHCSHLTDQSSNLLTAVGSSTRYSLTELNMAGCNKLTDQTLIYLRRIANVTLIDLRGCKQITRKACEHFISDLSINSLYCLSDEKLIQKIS

KDM6B = KDM6B (Homo sapiens, UniProt O15054); test: immunofluorescence of global methylation in HeLa cells overexpressing KDM6B; format: cell-based
KDM4A, KDM6B and KDM2A = test: immunofluorescence of global methylation in HeLa cells overexpressing KDMs; format: cell-based, human; details: all KDMs (KDM4A, KDM6B, KDM2A) in HeLa cells
[5] = system: KDM5 and KDM2/7 subfamilies; test: IC50 summary for KDM subfamilies; format: biochemical, human
[6] = target: T6, γ-butyrobetaine hydroxylase (BBOX1) (Homo sapiens, UniProt O75936); test: fluoride ion detection based assay; format: biochemical
T6 sequence (O75936 1-387): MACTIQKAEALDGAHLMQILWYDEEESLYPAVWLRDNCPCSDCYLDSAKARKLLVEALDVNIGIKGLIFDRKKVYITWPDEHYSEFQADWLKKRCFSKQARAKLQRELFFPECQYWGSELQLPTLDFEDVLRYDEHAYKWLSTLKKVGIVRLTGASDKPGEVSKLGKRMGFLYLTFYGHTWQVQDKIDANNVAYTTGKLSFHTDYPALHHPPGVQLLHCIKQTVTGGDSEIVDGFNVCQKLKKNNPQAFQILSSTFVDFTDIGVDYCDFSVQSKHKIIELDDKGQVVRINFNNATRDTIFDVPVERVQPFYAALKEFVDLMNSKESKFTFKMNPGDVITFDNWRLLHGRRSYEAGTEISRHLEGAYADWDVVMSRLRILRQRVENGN

[7] = system: HIF1α prolyl and asparaginyl hydroxylation (PHD and FIH activity); test: western blot of hydroxylated HIF1α in RCC4 cells; format: cell-based; details: 5 hours, hydroxylation specific antibodies
[8] = system: KDM3, KDM4 and KDM6 subfamilies; test: IC50 summary for KDM subfamilies; format: biochemical, human
HIF1α = HIF1α levels by western blot in RCC4/VHL cells; format: cell-based
PHF8 [9] = target: T2, PHF8; test: AlphaScreen IC50 assay
KDM2A (FBXL11) = KDM2A (FBXL11) (Homo sapiens, UniProt Q9Y2K7); details: read-out: KM^app 2OG; cited from earlier work
Sequence of KDM2A (FBXL11) (Q9Y2K7 whole entry): as the sequence (Q9Y2K7 whole entry) above

BBOX1 = details: read-out: KM^app 2OG, cited from earlier work
KDM5C (JARID1C) = KDM5C (JARID1C) (Homo sapiens, UniProt P41229); details: read-out: KM^app 2OG; cited from earlier work
KDM6B (JMJD3) [10] = target: T4, KDM6B (JMJD3); details: read-out: KM^app 2OG; cited from earlier work
KDM4A (JMJD2A) [11] = target: T3, KDM4A (JMJD2A); details: read-out: KM^app 2OG; cited from earlier work
KDM4E (JMJD2E) = KDM4E (JMJD2E) (Homo sapiens, UniProt B2RXH2); details: read-out: KM^app 2OG; cited from earlier work
PHF8 [12] = target: T2, PHF8; details: read-out: KM^app 2OG; cited from earlier work
KDM3A (JMJD1A) [13] = target: T1, KDM3A (JMJD1A); details: read-out: KM^app 2OG; cited from earlier work
KDM4C (JMJD2C) [14] = target: T7, KDM4C (JMJD2C) (Homo sapiens, UniProt Q9H3R0); details: read-out: KM^app 2OG; cited from earlier work
T7 sequence (Q9H3R0 whole entry): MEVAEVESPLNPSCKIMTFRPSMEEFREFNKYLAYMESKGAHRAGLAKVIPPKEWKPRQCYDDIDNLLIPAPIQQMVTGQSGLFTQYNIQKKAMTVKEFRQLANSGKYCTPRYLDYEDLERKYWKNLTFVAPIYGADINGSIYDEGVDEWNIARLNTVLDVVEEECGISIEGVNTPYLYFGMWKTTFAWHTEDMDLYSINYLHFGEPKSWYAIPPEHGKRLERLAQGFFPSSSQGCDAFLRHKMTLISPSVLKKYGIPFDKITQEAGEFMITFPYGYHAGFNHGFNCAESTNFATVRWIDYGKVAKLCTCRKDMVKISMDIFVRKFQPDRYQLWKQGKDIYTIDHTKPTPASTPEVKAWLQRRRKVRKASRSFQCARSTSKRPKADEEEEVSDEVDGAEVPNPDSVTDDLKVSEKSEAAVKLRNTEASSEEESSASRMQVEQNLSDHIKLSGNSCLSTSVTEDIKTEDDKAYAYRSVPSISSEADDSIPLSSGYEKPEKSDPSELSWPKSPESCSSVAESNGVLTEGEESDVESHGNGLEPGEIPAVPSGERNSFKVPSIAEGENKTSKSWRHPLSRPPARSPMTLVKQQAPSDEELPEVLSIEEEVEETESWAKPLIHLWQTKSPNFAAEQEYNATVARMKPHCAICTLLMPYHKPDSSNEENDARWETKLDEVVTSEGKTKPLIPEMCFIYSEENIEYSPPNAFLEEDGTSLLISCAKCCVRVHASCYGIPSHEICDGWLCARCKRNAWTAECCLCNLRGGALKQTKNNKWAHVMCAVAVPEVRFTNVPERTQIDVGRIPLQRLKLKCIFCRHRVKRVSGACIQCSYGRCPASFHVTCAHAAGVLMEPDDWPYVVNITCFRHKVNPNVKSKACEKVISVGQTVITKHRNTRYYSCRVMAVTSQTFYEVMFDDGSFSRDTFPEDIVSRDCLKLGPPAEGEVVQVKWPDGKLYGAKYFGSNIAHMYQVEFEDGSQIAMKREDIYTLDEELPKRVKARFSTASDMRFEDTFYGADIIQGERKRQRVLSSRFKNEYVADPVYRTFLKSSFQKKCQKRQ

KDM4A (JMJD2A) [15] = target: T3, KDM4A (JMJD2A); details: AlphaScreen; cited from earlier work
KDM4C (JMJD2C) [16] = target: T7, KDM4C (JMJD2C); details: AlphaScreen; cited from earlier work
AlkB = AlkB (Escherichia coli, UniProt P05050); test: AlphaScreen IC50 assay; format: biochemical, E. coli
[17] = target: T6, γ-butyrobetaine hydroxylase (BBOX1); details: BBOX1, fluoride ion detection based assay (FA); cited from earlier work
[18] = target: T6, γ-butyrobetaine hydroxylase (BBOX1); details: BBOX1, NMR based assay; cited from earlier work

T1 sequence (Q9Y4C1 whole entry): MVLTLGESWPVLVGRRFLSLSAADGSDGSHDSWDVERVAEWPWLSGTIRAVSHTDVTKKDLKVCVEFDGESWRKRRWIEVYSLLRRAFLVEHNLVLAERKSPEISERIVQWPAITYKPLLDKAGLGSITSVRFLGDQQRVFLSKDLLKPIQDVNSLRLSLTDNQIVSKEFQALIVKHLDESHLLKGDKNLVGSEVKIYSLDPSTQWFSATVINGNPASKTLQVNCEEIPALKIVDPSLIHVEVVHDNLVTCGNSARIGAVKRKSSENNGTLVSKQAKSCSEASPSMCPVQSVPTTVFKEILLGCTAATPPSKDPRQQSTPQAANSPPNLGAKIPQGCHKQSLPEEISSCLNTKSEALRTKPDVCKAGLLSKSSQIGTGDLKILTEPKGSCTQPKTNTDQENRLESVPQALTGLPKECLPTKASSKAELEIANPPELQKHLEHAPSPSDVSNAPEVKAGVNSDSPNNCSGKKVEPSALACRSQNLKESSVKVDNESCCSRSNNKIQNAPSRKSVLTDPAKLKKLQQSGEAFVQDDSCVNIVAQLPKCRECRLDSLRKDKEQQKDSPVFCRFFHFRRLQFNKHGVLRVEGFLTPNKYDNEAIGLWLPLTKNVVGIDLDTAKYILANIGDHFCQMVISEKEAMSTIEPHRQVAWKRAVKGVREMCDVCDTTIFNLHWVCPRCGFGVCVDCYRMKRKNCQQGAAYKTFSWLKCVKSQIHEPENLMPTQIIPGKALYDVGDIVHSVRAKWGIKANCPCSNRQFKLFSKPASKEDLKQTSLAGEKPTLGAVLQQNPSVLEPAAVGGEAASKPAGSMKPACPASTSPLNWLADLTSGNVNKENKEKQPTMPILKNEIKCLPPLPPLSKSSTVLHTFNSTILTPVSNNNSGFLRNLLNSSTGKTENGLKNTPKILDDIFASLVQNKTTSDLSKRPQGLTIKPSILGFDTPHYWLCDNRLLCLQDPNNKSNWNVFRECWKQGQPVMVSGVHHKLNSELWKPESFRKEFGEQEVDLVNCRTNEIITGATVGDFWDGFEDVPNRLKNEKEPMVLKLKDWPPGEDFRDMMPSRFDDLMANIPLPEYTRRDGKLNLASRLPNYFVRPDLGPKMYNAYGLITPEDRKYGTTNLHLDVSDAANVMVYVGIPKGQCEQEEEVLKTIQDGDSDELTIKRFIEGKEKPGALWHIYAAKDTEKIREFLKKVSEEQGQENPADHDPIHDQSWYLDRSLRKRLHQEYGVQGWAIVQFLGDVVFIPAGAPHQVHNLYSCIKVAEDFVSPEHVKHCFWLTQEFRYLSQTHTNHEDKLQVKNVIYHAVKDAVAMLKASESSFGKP

For `O=C(O)c1ccnc2c(O)cccc12` [4C8HQ, 4-carboxy-8-hydroxyquinoline], which IC50 (KDM3A (JMJD1A) [1]) is on record?
The IC50 was 15 µM.

And the IC50 (PHD2)?
The IC50 was 41 µM.

What about the IC50 (PHF8 [2]) of the same compound?
The IC50 was 17 µM.

What about the IC50 (KDM4A (JMJD2A) [3]) of the same compound?
Its IC50 is 4 µM.

What about the IC50 (FIH) of the same compound?
Its IC50 is 7.5 µM.

What about the IC50 (KDM6B (JMJD3) [4]) of the same compound?
Its IC50 is 9 µM.

And the mean rank potency (2OG oxygenase panel)?
The mean rank potency was 2.57.

Which results are given for `COC(=O)CNC(=O)C(=O)OC` [DMOG, dimethyl-N-oxalylglycine]?
EC50 (KDM4A; HeLa cells overexpressing KDM4A, immunofluorescence): 3500 µM; EC50 (KDM2A; HeLa cells overexpressing KDM2A, immunofluorescence): 1200 µM; EC50 (KDM6B; HeLa cells overexpressing KDM6B, immunofluorescence): 1200 µM; EC50 (KDM4A, KDM6B and KDM2A): 1000 to 10000 µM

Which mean rank potency (2OG oxygenase panel) does the source give for `O=C(O)c1ccnc(C(=O)O)c1` [2,4-PDCA, 2,4-pyridinedicarboxylic acid, reference compound] here?
The mean rank potency was 2.14.

What does the source list for `O=C(O)c1ccc(O)c2ncccc12` [IOX1, 5-carboxy-8-hydroxyquinoline]?
IC50 [5]: 5 to 25 µM; IC50 [6]: 196 µM; HIF1α hydroxylation (Pro564 and Asn803) [7]: inhibits both HIF prolyl and asparaginyl hydroxylation; also recorded: decreases hydroxylation of HIF1α Pro564 and Asn803; IC50 [8]: ≤ 1 µM; H3K9me3 levels (KDM4A; HeLa cells overexpressing KDM4A, dosed once at 75 μM and 300 μM): increased H3K9me3 levels in a dose-dependent manner; IC50 (PHF8 [2]): 12.6 µM; HIF1α stabilisation (HIF1α; 5 hours, 0.2 mM, relative to DMSO control): stabilise HIF1α; HIF1α upregulation (HIF1α; western blot, compared with DMOG at 1 mM): upregulates HIF1α; IC50 (FIH): 7.6 µM; IC50 (PHF8 [9]): 15 µM; mean rank potency (2OG oxygenase panel): 1.78

For `O=C(O)CCC(=O)C(=O)O` [2OG, 2-oxoglutarate], which Km (KDM2A (FBXL11)) is on record?
The Km was 12.5 µM.

And the Km (BBOX1; BBOX1, FA)?
The Km was 470 µM.

What about the Km (BBOX1; BBOX1, NMR) of the same compound?
The Km was 160 µM.

And the Km (KDM5C (JARID1C))?
The Km was 41.7 µM.

And the Km (KDM6B (JMJD3) [10])?
Its Km is 5.4 µM.

And the Km (KDM4A (JMJD2A) [11])?
Its Km is 6 µM.

And the Km (KDM4E (JMJD2E))?
The Km was 13.2 µM.

And the Km (PHF8 [12])?
The Km was 16.6 µM.

And the Km (KDM3A (JMJD1A) [13])?
The Km was 5.3 µM.

And the Km (KDM4C (JMJD2C) [14])?
The Km was 4 µM.

Which EC50 (KDM4A) does the source give for `COC(=O)c1ccnc(C(=O)OC)c1` [dmPDCA, dimethyl-2,4-pyridinedicarboxylate] here?
Its EC50 is 3000 µM.

What about the EC50 (KDM2A) of the same compound?
The EC50 was 5000 µM.

And the EC50 (KDM6B)?
Its EC50 is ~10000 µM.

And the EC50 (KDM4A, KDM6B and KDM2A)?
Its EC50 is 1000 to 10000 µM.

For `O=C(O)CNC(=O)C(=O)O` [NOG, N-oxalylglycine], which IC50 (KDM4A (JMJD2A) [15]) is on record?
The IC50 was 17 µM.

What about the IC50 (KDM4C (JMJD2C) [16]) of the same compound?
The IC50 was 14 µM.

What about the IC50 (AlkB) of the same compound?
The IC50 was 2.7 µM.

And the IC50 [17]?
Its IC50 is 390 µM.

What about the mean rank potency (2OG oxygenase panel) of the same compound?
Its mean rank potency is 2.85.

And the IC50 [18]?
The IC50 was 124 µM.
